Experimental data from PubChem BioAssay AID1963833 (Molecular Pharmacology Branch, DTP, NCI, 2024).

System: 883617-216-R-J1-PDC complex spheroid viability
Assay: Anticancer human tumor 883617-216-R-J1-PDC patient-derived bladder carcinoma cell line growth inhibition [POLQ]
Details: for IC50: curve of first compound; for viability, T/C: stronger effect = lower value
Summary of the method: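 Three-cell-type spheroids modelling solid tumor plus stroma served as the readout system; POL inhibitors were tested individually and in combination, concentration ranges set by clinical Cmax where known.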

[1] = second compound 0.0316 µM, first compound 0.0316 µM
[2] = second compound 0.0316 µM, first compound 0.1 µM
[3] = second compound 0.0316 µM, first compound 0.316 µM
[4] = second compound 0.0316 µM, first compound 1 µM
[5] = second compound 0.0316 µM, first compound 3.16 µM
[6] = second compound 0.0316 µM, first compound 10 µM
[7] = second compound 0.1 µM, first compound 0.0316 µM
[8] = second compound 0.1 µM, first compound 0.1 µM
[9] = second compound 0.1 µM, first compound 0.316 µM
[10] = second compound 0.1 µM, first compound 1 µM
[11] = second compound 0.1 µM, first compound 3.16 µM
[12] = second compound 0.1 µM, first compound 10 µM
[13] = second compound 0.316 µM, first compound 0.0316 µM
[14] = second compound 0.316 µM, first compound 0.1 µM
[15] = second compound 0.316 µM, first compound 0.316 µM
[16] = second compound 0.316 µM, first compound 1 µM
[17] = second compound 0.316 µM, first compound 3.16 µM
[18] = second compound 0.316 µM, first compound 10 µM
[19] = second compound 1 µM, first compound 0.0316 µM
[20] = second compound 1 µM, first compound 0.1 µM
[21] = second compound 1 µM, first compound 0.316 µM
[22] = second compound 1 µM, first compound 1 µM
[23] = second compound 1 µM, first compound 3.16 µM
[24] = second compound 1 µM, first compound 10 µM
[25] = second compound 3.16 µM, first compound 0.0316 µM
[26] = second compound 3.16 µM, first compound 0.1 µM
[27] = second compound 3.16 µM, first compound 0.316 µM
[28] = second compound 3.16 µM, first compound 1 µM
[29] = second compound 3.16 µM, first compound 3.16 µM
[30] = second compound 3.16 µM, first compound 10 µM
[31] = second compound 10 µM, first compound 0.0316 µM
[32] = second compound 10 µM, first compound 0.1 µM
[33] = second compound 10 µM, first compound 0.316 µM
[34] = second compound 10 µM, first compound 1 µM
[35] = second compound 10 µM, first compound 3.16 µM
[36] = second compound 10 µM, first compound 10 µM
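Further: spheroids exposed to compounds for seven days before readout.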
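Wherever viability, T/C is given: 100% = DMSO vehicle control viability.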

SMILES: O=C(c1cc(Cc2n[nH]c(=O)c3ccccc23)ccc1F)N1CCN(C(=O)C2CC2)CC1 + Nc1ccc(C#CCN(C(=O)Cc2ncc(C(F)(F)F)cc2C(F)(F)F)c2ccc(F)cc2)nn1
- IC50 (second compound 0.0316 µM): > 10 µM
- IC50 (second compound 0.1 µM): > 10 µM
- IC50 (second compound 0.316 µM): > 10 µM
- IC50 (second compound 1 µM): > 10 µM
- IC50 (second compound 3.16 µM): > 10 µM
- IC50 (second compound 10 µM): > 10 µM
- viability, T/C [1]: 90%
- viability, T/C [2]: 105%
- viability, T/C [3]: 83.3%
- viability, T/C [4]: 89.8%
- viability, T/C [5]: 90.3%
- viability, T/C [6]: 67.8%
- viability, T/C [7]: 92.8%
- viability, T/C [8]: 109%
- viability, T/C [9]: 92.7%
- viability, T/C [10]: 97.5%
- viability, T/C [11]: 95.4%
- viability, T/C [12]: 86.4%
- viability, T/C [13]: 97.9%
- viability, T/C [14]: 109%
- viability, T/C [15]: 100%
- viability, T/C [16]: 89.1%
- viability, T/C [17]: 75.7%
- viability, T/C [18]: 87.9%
- viability, T/C [19]: 100%
- viability, T/C [20]: 86.8%
- viability, T/C [21]: 99.3%
- viability, T/C [22]: 104%
- viability, T/C [23]: 84.8%
- viability, T/C [24]: 95.3%
- viability, T/C [25]: 90%
- viability, T/C [26]: 99.5%
- viability, T/C [27]: 92.2%
- viability, T/C [28]: 91.3%
- viability, T/C [29]: 81.2%
- viability, T/C [30]: 73%
- viability, T/C [31]: 97%
- viability, T/C [32]: 103%
- viability, T/C [33]: 100%
- viability, T/C [34]: 93.1%
- viability, T/C [35]: 94.2%
- viability, T/C [36]: 73%

SMILES: COc1cc2cc(C(=O)CCC(=O)O)sc2cc1OC + Nc1ccc(C#CCN(C(=O)Cc2ncc(C(F)(F)F)cc2C(F)(F)F)c2ccc(F)cc2)nn1
- IC50 (second compound 0.0316 µM): > 10 µM
- IC50 (second compound 0.1 µM): > 10 µM
- IC50 (second compound 0.316 µM): > 10 µM
- IC50 (second compound 1 µM): > 10 µM
- IC50 (second compound 3.16 µM): > 10 µM
- IC50 (second compound 10 µM): > 10 µM
- viability, T/C [1]: 109%
- viability, T/C [2]: 107%
- viability, T/C [3]: 123%
- viability, T/C [4]: 93.5%
- viability, T/C [5]: 105%
- viability, T/C [6]: 104%
- viability, T/C [7]: 112%
- viability, T/C [8]: 90.6%
- viability, T/C [9]: 101%
- viability, T/C [10]: 95.5%
- viability, T/C [11]: 101%
- viability, T/C [12]: 107%
- viability, T/C [13]: 90.7%
- viability, T/C [14]: 101%
- viability, T/C [15]: 94.9%
- viability, T/C [16]: 100%
- viability, T/C [17]: 114%
- viability, T/C [18]: 106%
- viability, T/C [19]: 97.1%
- viability, T/C [20]: 125%
- viability, T/C [21]: 108%
- viability, T/C [22]: 102%
- viability, T/C [23]: 91.5%
- viability, T/C [24]: 95.6%
- viability, T/C [25]: 114%
- viability, T/C [26]: 115%
- viability, T/C [27]: 115%
- viability, T/C [28]: 83.2%
- viability, T/C [29]: 92.5%
- viability, T/C [30]: 120%
- viability, T/C [31]: 122%
- viability, T/C [32]: 128%
- viability, T/C [33]: 122%
- viability, T/C [34]: 113%
- viability, T/C [35]: 155%
- viability, T/C [36]: 110%
